Data taken from the supplement of paper PMC10307832.

How the values were obtained:
Assay in all cases: relative viability (nuclei count vs DMSO), 5 days (fraction); higher = more cells survive
YM155 + Linsitinib = compound: COCC[n+]1c2c(n(Cc3cnccn3)c1C)C(=O)c1ccccc1C2=O [YM155] + C[C@]1(O)C[C@@H](c2nc(-c3ccc4ccc(-c5ccccc5)nc4c3)c3c(N)nccn32)C1 [Linsitinib] (partner 1 µM)
Outline: (§1)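 Relative viability equals treated-well nuclei counts divided by vehicle-well nuclei counts. Counts came from 4× images of lung cancer cell lines grown in 1536-well plates for 5 days after pin-tool dosing on the day after seeding. Dosing used one drug alone or a fixed anchor-drug dose plus five library-drug doses (not always all listed) in √10 steps, and values are medians of duplicate plates.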

YM155 + Navitoclax = compound: COCC[n+]1c2c(n(Cc3cnccn3)c1C)C(=O)c1ccccc1C2=O [YM155] + CC1(C)CCC(c2ccc(Cl)cc2)=C(CN2CCN(c3ccc(C(=O)NS(=O)(=O)c4ccc(N[C@H](CCN5CCOCC5)CSc5ccccc5)c(S(=O)(=O)C(F)(F)F)c4)cc3)CC2)C1 [Navitoclax] (partner 0.5 µM)
Outline: as §1

Quizartinib + Tozasertib = compound: CC(C)(C)c1cc(NC(=O)Nc2ccc(-c3cn4c(n3)sc3cc(OCCN5CCOCC5)ccc34)cc2)no1 [Quizartinib] + Cc1cc(Nc2cc(N3CCN(C)CC3)nc(Sc3ccc(NC(=O)C4CC4)cc3)n2)n[nH]1 [Tozasertib] (partner 0.1 µM)
Outline: as §1

YM155 + Palbociclib = compound: COCC[n+]1c2c(n(Cc3cnccn3)c1C)C(=O)c1ccccc1C2=O [YM155] + CC(=O)c1c(C)c2cnc(Nc3ccc(N4CCNCC4)cn3)nc2n(C2CCCC2)c1=O [Palbociclib] (partner 0.5 µM)
Outline: as §1

Cell Line | relative viability (YM155 + Linsitinib; first compound 0.002 µM) | relative viability (YM155 + Linsitinib; first compound 0.006325 µM) | relative viability (YM155 + Linsitinib; first compound 0.02 µM) | relative viability (YM155 + Linsitinib; first compound 0.06325 µM) | relative viability (YM155 + Navitoclax; first compound 0.002 µM) | relative viability (YM155 + Navitoclax; first compound 0.006325 µM) | relative viability (YM155 + Navitoclax; first compound 0.02 µM) | relative viability (YM155 + Navitoclax; first compound 0.06325 µM) | relative viability (Quizartinib + Tozasertib; first compound 0.001 µM) | relative viability (Quizartinib + Tozasertib; first compound 0.003162 µM) | relative viability (Quizartinib + Tozasertib; first compound 0.01 µM) | relative viability (Quizartinib + Tozasertib; first compound 0.03162 µM) | relative viability (Quizartinib + Tozasertib; first compound 0.1 µM) | relative viability (YM155 + Palbociclib; first compound 0.002 µM) | relative viability (YM155 + Palbociclib; first compound 0.006325 µM) | relative viability (YM155 + Palbociclib; first compound 0.02 µM) | relative viability (YM155 + Palbociclib; first compound 0.06325 µM)
NCI-H1755 | 0.972 | 1.03 | 0.974 | 0.976 | 0.996 | 0.981 | 0.949 | 1.06 | 0.583 | 0.536 | 0.569 | 0.626 | 0.48 | 0.439 | 0.478 | 0.456 | 0.453
NCI-H1793 |  | 0.639 | 0.886 | 0.483 |  | 0.337 | 0.422 | 0.301 | 0.329 | 0.289 | 0.291 | 0.214 | 0.238 | 0.292 | 0.324 | 0.323 | 0.304
NCI-H1915 | 1.12 | 1.05 | 1.1 | 1.01 | 0.804 | 0.79 | 0.792 | 0.822 | 0.419 | 0.427 | 0.42 | 0.401 | 0.389 | 0.494 | 0.533 | 0.539 | 0.552
NCI-H1944 | 1.14 | 1.15 | 1.19 | 1.32 | 1.05 | 0.983 | 1.05 | 1.17 | 0.291 | 0.264 | 0.267 | 0.263 | 0.278 | 0.337 | 0.296 | 0.328 | 0.325
NCI-H1975 | 1.03 | 1.06 | 0.861 | 0.842 | 1.09 | 0.97 | 1.08 | 0.626 | 0.71 | 0.809 | 0.488 | 0.372 | 0.16 | 0.463 | 0.531 | 0.643 | 0.259
NCI-H1993 | 0.678 | 0.701 | 0.777 | 0.697 | 0.968 | 0.951 | 0.847 | 0.795 | 0.589 | 0.645 | 0.594 | 0.622 | 0.582 | 0.557 | 0.657 | 0.554 | 0.43
NCI-H2009 | 1.2 | 1.25 | 1.13 | 0.217 | 1.16 | 1.13 | 1.06 | 0.567 | 0.692 | 0.695 | 0.628 | 0.653 | 0.506 | 0.215 | 0.189 | 0.318 | 0.166
NCI-H2023 | 0.744 | 0.699 | 0.659 | 0.305 | 1.04 | 1.07 | 0.987 | 0.261 | 0.278 | 0.32 | 0.272 |  | 0.177 | 0.384 | 0.423 | 0.21 | 0.105
NCI-H2085 | 0.822 | 0.743 | 0.852 | 0.517 | 1.06 | 0.989 | 0.99 | 0.674 | 0.679 | 0.752 | 0.816 | 0.614 | 0.45 | 0.436 | 0.441 | 0.469 | 0.375
